Test results reported in ChEMBL document CHEMBL1135144, “N-(pyrimidin-4-yl) and N-(pyridin-2-yl) phenylalanine derivatives as VLA-4 integrin antagonists” (Bioorg Med Chem Lett, 2002).

Assay: Compound was evaluated for rate of clearance in IPRL (Isolated Perfused Rat Liver)
Format: ADME

Compound	k el [s⁻¹]
CC(C)CS(=O)(=O)c1nc(N[C@@H](Cc2ccc(NC(=O)c3c(Cl)cncc3Cl)cc2)C(=O)O)cc(C(=O)O)n1	0.00164
CCCS(=O)(=O)c1nc(N[C@@H](Cc2ccc(NC(=O)c3c(Cl)cncc3Cl)cc2)C(=O)O)cc(OC)n1	0.00156
CCCS(=O)(=O)c1nc(N[C@@H](Cc2ccc(NC(=O)c3c(Cl)cncc3Cl)cc2)C(=O)O)cc(C(=O)O)n1	0.00025
O=C(Nc1ccc(CC(Nc2ccc(Cl)cn2)C(=O)O)cc1)c1c(Cl)cncc1Cl (centres undefined)	5.56e-05
O=C(Nc1ccc(C[C@H](Nc2cc(S(=O)(=O)Cc3ccccc3)ncn2)C(=O)O)cc1)c1c(Cl)cncc1Cl	0.00144
CCCS(=O)(=O)c1cc(N[C@@H](Cc2ccc(NC(=O)c3c(Cl)cncc3Cl)cc2)C(=O)O)ncn1	0.00122
CS(=O)(=O)c1cc(N[C@@H](Cc2ccc(NC(=O)c3c(Cl)cncc3Cl)cc2)C(=O)O)ncn1	0.00111
CCCS(=O)(=O)c1cc(NC(Cc2ccc(NC(=O)c3c(Cl)cncc3Cl)cc2)C(=O)O)ncc1Cl (centres undefined)	0.000583
CCCS(=O)(=O)c1ccnc(NC(Cc2ccc(NC(=O)c3c(Cl)cncc3Cl)cc2)C(=O)O)c1 (centres undefined)	0.00144
CCCS(=O)(=O)c1cc(NC(Cc2ccc(NC(=O)c3c(Cl)cncc3Cl)cc2)C(=O)O)ncc1C(=O)O (centres undefined)	5.56e-05
COc1cc(N[C@@H](Cc2ccc(NC(=O)c3c(Cl)cncc3Cl)cc2)C(=O)O)nc(S(C)(=O)=O)n1	0.00136
O=C(Nc1ccc(C[C@H](Nc2cc(Cc3ccccc3)ncn2)C(=O)O)cc1)c1c(Cl)cncc1Cl	0.00178
CCCS(=O)(=O)c1nccc(N[C@@H](Cc2ccc(NC(=O)c3c(Cl)cncc3Cl)cc2)C(=O)O)n1	0.00122

Continued, values first:

k el [s⁻¹]	Compound
0.000861	O=C(Nc1ccc(C[C@H](Nc2cc(Oc3ccccc3)ncn2)C(=O)O)cc1)c1c(Cl)cncc1Cl
0.000361	CSc1ncc(C(=O)O)c(N[C@@H](Cc2ccc(NC(=O)c3c(Cl)cncc3Cl)cc2)C(=O)O)n1
0.000861	CCCCCCS(=O)(=O)c1nc(N[C@@H](Cc2ccc(NC(=O)c3c(Cl)cncc3Cl)cc2)C(=O)O)cc(C(=O)O)n1
0.00128	CCC[S+]([O-])c1cc(NC(Cc2ccc(NC(=O)c3c(Cl)cncc3Cl)cc2)C(=O)O)ncc1Cl (centres undefined)
0.00119	CCC[S+]([O-])c1cc(N[C@@H](Cc2ccc(NC(=O)c3c(Cl)cncc3Cl)cc2)C(=O)O)ncn1 (some centres undefined)
0.00181	CCCS(=O)(=O)c1nc(C)cc(N[C@@H](Cc2ccc(NC(=O)c3c(Cl)cncc3Cl)cc2)C(=O)O)n1
